The results in this text go back to PubChem BioAssay (NCI).

Test systems include EKVX NSCLC; NCI-H522 lung; A549 NSCLC; SW-620 colon; DU-145 prostate; ACHN renal; NCI-H226 lung.
Holding throughout (assay): NCI anticancer screen, dose series, 48 h

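Assay format: 96-well plates, 48-hour exposure. GI50: concentration for 50% inhibition of growth. TGI is the concentration that stops growth completely.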

Regarding `COc1ccc(-n2cc(-c3cc(OC)c(OC)c(OC)c3)nc2SCc2ccc(Cl)cc2)cc1OC`, the GI50 with EKVX NSCLC is 95.3 µM; in the assay with NCI-H522 lung, 41.2 µM; in the assay with A549 NSCLC, 53.2 µM; in the assay with SW-620 colon, > 100 µM; in the assay on DU-145 prostate it was > 100 µM; with ACHN renal it was > 100 µM. In the assay on NCI-H226 lung, the GI50 was > 100 µM. The TGI in the assay with EKVX NSCLC, in the assay on NCI-H522 lung, in the assay on A549 NSCLC, with SW-620 colon, with DU-145 prostate and in the assay with ACHN renal was > 100 µM throughout. For the same compound, the TGI with NCI-H226 lung was > 100 µM.

Regarding `COc1ccc2[nH]c(Cl)c(/C=C3/C(=O)Nc4ccccc43)c2c1`, the GI50 in the assay with EKVX NSCLC is 2.07 µM; with NCI-H522 lung it was 0.381 µM; in the assay on A549 NSCLC it was 1.2 µM; in the assay with SW-620 colon it was 0.366 µM; in the assay on DU-145 prostate, 0.279 µM; in the assay on ACHN renal, 0.786 µM. In the assay on NCI-H226 lung, the GI50 is 0.782 µM. In addition, the TGI in the assay with EKVX NSCLC worked out at 3.96 µM; in the assay on NCI-H522 lung it was 1.87 µM; in the assay with A549 NSCLC it was 5.36 µM; in the assay with SW-620 colon, 7.58 µM; with DU-145 prostate, 2.35 µM; in the assay with ACHN renal it was 5.85 µM. Also, the TGI with NCI-H226 lung was 19.2 µM.

Regarding `CN(C)c1ccc(C(=S)c2ccc(N(C)C)cc2)cc1`, the GI50 with EKVX NSCLC was 16.5 µM; in the assay with NCI-H522 lung it was 2.56 µM; with A549 NSCLC it was 7.81 µM; in the assay on SW-620 colon, 3.98 µM; with DU-145 prostate, 20.3 µM; with ACHN renal, 13.4 µM. The GI50 in the assay with NCI-H226 lung is 22.2 µM. Moreover, the TGI is > 100 µM in the assay on EKVX NSCLC; 9.31 µM with NCI-H522 lung; > 100 µM with A549 NSCLC; > 100 µM in the assay with SW-620 colon; > 100 µM in the assay with DU-145 prostate; > 100 µM with ACHN renal. Further, in the assay on NCI-H226 lung, the TGI was > 100 µM.

Take `Cc1cccc2c(C3=C(c4cn(C)c5ccccc45)C(=O)NC3=O)cn(C)c12`: the GI50 with NCI-H522 lung was > 17 µM; in the assay with A549 NSCLC, > 25 µM; in the assay on SW-620 colon, 12.7 µM; in the assay on DU-145 prostate, > 25 µM; in the assay with ACHN renal, 13.1 µM; in the assay with NCI-H226 lung, > 25 µM. Also, the TGI with NCI-H522 lung, in the assay on A549 NSCLC, in the assay with SW-620 colon, in the assay with DU-145 prostate, with ACHN renal and in the assay on NCI-H226 lung was > 25 µM throughout.

With `Clc1ccc(-c2cc(-c3ccccc3)nc(N3CCN(CCCNc4ccnc5cc(Cl)ccc45)CC3)n2)cc1`, the GI50 in the assay with NCI-H522 lung is 1.78 µM; in the assay on A549 NSCLC, 1.77 µM; in the assay on SW-620 colon, 1.42 µM; with DU-145 prostate it was 1.52 µM; in the assay with ACHN renal, 1.61 µM. Also, the TGI in the assay on NCI-H522 lung worked out at 3.54 µM; in the assay on A549 NSCLC it was 3.75 µM; in the assay with SW-620 colon, 3.06 µM; in the assay with DU-145 prostate it was 2.94 µM; in the assay on ACHN renal, 2.96 µM.

In the case of `O=C(Nc1ccc(OS(=O)(=O)c2ccc(F)cc2)cc1)C12CC3CC(CC(C3)C1)C2`, the GI50 is 1.72 µM with NCI-H522 lung; 5.25 µM with A549 NSCLC; 0.54 µM in the assay on SW-620 colon; 13.9 µM in the assay with DU-145 prostate; 14.6 µM in the assay with ACHN renal; 15 µM in the assay on NCI-H226 lung. Also, the TGI with NCI-H522 lung was > 100 µM; with A549 NSCLC, > 100 µM; in the assay on SW-620 colon it was > 100 µM; in the assay on DU-145 prostate it was 99.2 µM; in the assay with ACHN renal, > 100 µM; in the assay on NCI-H226 lung, > 79.3 µM.

Take `O=C(NC1CCN(Cc2ccccc2)CC1)c1cc(-c2cccnc2)nc2ccc(Cl)cc12`: the GI50 in the assay with A549 NSCLC was 4.61 µM; with SW-620 colon, 11.5 µM; with DU-145 prostate, 8.78 µM; in the assay with ACHN renal, 2.36 µM; in the assay with NCI-H226 lung, 9.72 µM. The TGI in the assay on A549 NSCLC is 44.8 µM; with SW-620 colon, > 100 µM; in the assay on DU-145 prostate, > 100 µM; with ACHN renal, 6.54 µM; with NCI-H226 lung, 50.3 µM.

`CCn1cnc(C[C@H](NC(=O)[C@H](CCCCNC(=O)Nc2cc(C(F)(F)F)cc(C(F)(F)F)c2)NC(=O)Nc2cc(C(F)(F)F)cc(C(F)(F)F)c2)C(=O)OC)c1`: the GI50 in the assay with NCI-H522 lung was 5.19 µM; in the assay on A549 NSCLC, 3.97 µM; in the assay on SW-620 colon it was 6.86 µM; with DU-145 prostate, 5.49 µM; with ACHN renal it was 5.61 µM; with NCI-H226 lung it was > 10 µM. Also, the TGI in the assay with NCI-H522 lung, with A549 NSCLC, with SW-620 colon, in the assay with DU-145 prostate, in the assay on ACHN renal and with NCI-H226 lung was > 10 µM each time.

Turning to `OCC1NC(COC2OC(CO)C(O)C(O)C2O)C(O)C(O)C1O` (stereo not drawn), the TGI in the assay with NCI-H522 lung, in the assay with A549 NSCLC, with SW-620 colon, in the assay on DU-145 prostate, in the assay with ACHN renal and in the assay with NCI-H226 lung was > 100 µM each time.

Regarding `C[C@@H](O)[C@@H](C)Oc1nc(Nc2ccc(S(=N)(=O)C3CC3)cc2)ncc1C(F)(F)F` (stereo partly drawn), the GI50 in the assay on NCI-H522 lung was 0.0328 µM; in the assay with A549 NSCLC it was 0.0298 µM; in the assay on SW-620 colon, 0.0281 µM; in the assay with DU-145 prostate it was 0.0258 µM; in the assay on ACHN renal, 0.0261 µM; in the assay with NCI-H226 lung it was 0.0288 µM. Moreover, the TGI in the assay on NCI-H522 lung is 0.81 µM; with A549 NSCLC it was 15.6 µM; in the assay on SW-620 colon, 4.35 µM; with DU-145 prostate, > 61.8 µM; with ACHN renal it was > 100 µM; in the assay on NCI-H226 lung, 0.106 µM.

In the case of `CCOC(=O)/C(=C/CC/C(C)=C/CC/C(C)=C/CCc1ccoc1)CC(=O)N1CCCCC1`, the GI50 in the assay with NCI-H522 lung was 2.75 µM; in the assay with A549 NSCLC, 1.92 µM; with SW-620 colon, 4.8 µM; in the assay with DU-145 prostate it was 7.76 µM; in the assay on ACHN renal, 2.93 µM; in the assay on NCI-H226 lung it was 4.48 µM. Moreover, the TGI is 9.2 µM in the assay with NCI-H522 lung; 4.14 µM in the assay on A549 NSCLC; 19.2 µM with SW-620 colon; 43.4 µM in the assay with DU-145 prostate; 10.3 µM in the assay with ACHN renal; 19.4 µM with NCI-H226 lung.

In the case of `Oc1ccc2ccccc2c1CCc1c(O)ccc2ccccc12`, the TGI is 26.4 µM in the assay on EKVX NSCLC; 25.3 µM in the assay on A549 NSCLC; 28.4 µM in the assay on SW-620 colon; 30 µM in the assay with ACHN renal; 33.2 µM with NCI-H226 lung.
